Laboratory results taken from patent publication US20220401617A1, “ADHESIVE COMPOSITIONS COMPRISING THERAPEUTICS” (RevBio, Inc., priority 2019, published 2022).
Counter-ions that a name gives are not always drawn.

Experiments:
[1] = assay type: physicochemical
Description: Several formulations of compositions comprising pain relievers (e.g., locally acting analgesics (e.g., naproxen and diclofenac) or local anesthetics (e.g. bupivacaine and articaine) were investigated for their affinity to the adhesive composition. The affinity of the therapeutic depends on the nature of the therapeutic and its interaction with the composition. This is measured as the partition coefficient which is the ratio of the amount of drug released from the composition to the ratio of the amount of drug retained in the composition under specific conditions.
The specific composition (e.g., adhesive composition) comprised 400 mg tetracalcium phosphate, 250 mg phosphoserine (a compound in FIG. 1V-a), and 135 μl of water that was prepared by mixing for 30 seconds, after which the mixture was formed into standard spherical substrates and allowed to cure. The substrate was then crushed using a mortar and pestle and used as a control. For the composition comprising a therapeutic, 1% w/w of the therapeutic was added to the tetracalcium phosphate and phosphoserine powder blend. The therapeutic was thoroughly mixed with tetracalcium phosphate and phosphoserine, after which deionized water was added and mixed for 30 seconds. Standard spherical substrates approximately 8 mm in diameter of adhesive composition were prepared. After curing, the substrate was crushed using mortar and pestle and the samples were incubated in 50 mL 1× PBS solution for 18 hours at 37° C. The partition coefficient of the therapeutic was evaluated using high-pressure liquid chromatography (HPLC) as shown in Table 3 below.

[2] = Release of bupivacaine from porous adhesive composition formulation (HPLC elution); assay type: physicochemical; settings: 10% w/w drug, 50 mL 1x PBS, 7-day period, 37° C.
Description: Several formulations of compositions comprising pain relievers (e.g., local anesthetics (e.g. bupivacaine)) were investigated. […] The release study was analyzed using elution studies, where HPLC was used to analyze the amount of pain reliever released over time. The elution profile of bupivacaine from a porous adhesive composition matrix was analyzed over a 7-day period.
The particle size of calcium carbonate was between 15 nm to 40 nm. This formulation was used a control for the study. […] A bupivacaine formulation was tested by adding 10% w/w of the drug to the tetracalcium phosphate and phosphoserine powder blend. Standard spherical substrates of approximately 8 mm in diameter of porous adhesive bone regenerative were prepared. After curing, the samples were incubated in 50 mL 1× PBS solution for 7-days at 37° C.

[3] = 8% w/w naproxen, ssNMR
[4] = Properties of exemplary adhesive compositions (compound + tetra-calcium phosphate + water); assay type: physicochemical; settings: mixed with tetra-calcium phosphate and water
Description: Exemplary adhesive compositions were prepared by providing the compounds listed in Table 1 and tetra-calcium phosphate in a suitable receptacle and mixing with water to achieve the desired consistency. While water was used as the aqueous medium in the present compositions, the aqueous medium may instead be blood, saliva, serum, or a blood-based solution or suspension. In the present compositions, the solid components (compounds, tetra-calcium phosphate) were provided as particles. However, the solid components listed in the table may be provided in particle, granule, or fiber form, and the size of each of the components may vary as described in the Detailed Description. In some embodiments, the resulting properties, such as working and setting time, may be affected by these changes. The specific mean particle, granule, or fiber size for each solid component was selected to satisfy the use requirements as described in each of the embodiments.
The compounds comprising glyphosine, O-Phospho-L-serine (OPLS), […] […] After mixing, the compositions described were applied to the desired site and the adhesive properties examined, e.g., for tensile strength and durability.

[5] = Retention/elution of gentamicin from adhesive composition matrix (HPLC); assay type: physicochemical; settings: 2.5% w/w or 5% w/w gentamicin, PBS, 37° C., 10 days incubation
Description: Several formulations of compositions comprising antibiotics (AB) were investigated. The retention of the AB within the compositions may avoid or prevent bacterial colonization on or within the cured adhesive composition or any post-operative infection that could develop. The retention study was analyzed using elution studies, wherein high-pressure liquid chromatography (HPLC) was used to analyze the amount of AB released over time. Particularly, the elution profile of gentamicin from adhesive composition matrix was analyzed at days 1, 3, 5 and 10.
Several compositions were tested by adding either 2.5% w/w or 5% w/w of gentamicin to the tetracalcium phosphate and phosphoserine powder blend. Each cylinder was immersed in a polypropylene tube with 5 ml phosphate buffered saline (PBS) and shaken in a rotator at 37° C. Over the study period of 10 days, daily transfer of the cement cylinder into a test tube with PBS was conducted after saline washings. Elution samples of PBS was collected at various time points over a period of 10 days. The control was adhesive composition with no gentamicin, and the standard was different concentration of gentamicin alone.

Molecule `CC(=O)Oc1ccccc1C(=O)O` [Aspirin] has a Partition coefficient [1] of 0.61.

With `CCCCN1CCCCC1C(=O)Nc1c(C)cccc1C` (stereo not drawn) [Bupivacaine•HCl] the “% bupivacaine release, porous vs non-porous formulation” value [2] was “remarkable increase” and the Partition coefficient [1] was 0.37.

In the case of `O=C(O)Cc1ccccc1Nc1c(Cl)cccc1Cl` [Diclofenac•Na], the Partition coefficient [1] is reported as 0.103.

`CC(C)Cc1ccc(C(C)C(=O)O)cc1` (stereo not drawn) [Ibuprofen] gave a Partition coefficient [1] of 0.

In the case of `COc1ccc2cc([C@H](C)C(=O)O)ccc2c1` [Naproxen], the “Elution of naproxen from the adhesive composition” value ([3]; crushed, 10 mL 1x PBS, 4-days, 37° C.) is reported as “almost fully eluted” and the “Modification of chemical structure upon inclusion in the adhesive composition” value [3] is reported as “no modification of the naproxen chemical structure”.

For `N[C@@H](COP(=O)(O)O)C(=O)O` [O-Phospho-L-serine, O-Phospho-L-Serine], the “Properties of the adhesive composition prepared with the compound” value (“Properties” for short) [4] was “injectable, adhesive, tacky, and self-setting”.

In the case of `O=P(O)(O)CN(CP(=O)(O)O)CP(=O)(O)O` [aminotris(methylenephosphonic acid), (Nitrilotris(methylene)) triphosphonic acid], the “Properties” value [4] is reported as “injectable, adhesive, tacky, and self-setting”.

In the case of `O=C(O)CN(CCN(CC(=O)O)CC(=O)O)CC(=O)O` [ethylenediaminetetraacetic acid, Ethylenediamine tetraacetic acid], the “Properties” value [4] is reported as “injectable, adhesive, tacky, and self-setting”.

For `O=C(O)CN(CP(=O)(O)O)CP(=O)(O)O` [glyphosine, N,N-Bis(phosphonomethyl)glycine], the “Properties” value [4] was “injectable, adhesive, tacky, and self-setting”.

With gentamicin the “Retention of gentamicin in the adhesive composition” value [5] was “most of gentamicin was retained”.
